The values below come from patent publication US20230391772A1, “METHODS AND COMPOSITIONS FOR TARGETED PROTEIN DEGRADATION” (Ranok Therapeutics (Hangzhou) Co. Ltd., priority 2020, published 2023).

For test [1], the system named is NCI-H358 human non-small cell lung cancer. Put plainly: NCI-H358 CCK-8 proliferation assay. Type of test: cell-based. The settings on record: NCI-H358 cells, 72 hr. The method, then: The following cancer cell lines were employed: BT-474 human breast carcinoma (ATCC, #HTB-20); MIA PaCa-2 human pancreatic carcinoma [2 copies KRAS(G12C)](ATCC, #CRL-1420); NCI-H23 human non-small cell lung cancer [1 copy KRAS(G12C)](ATCC, #CRL-5800); NCI-H358 human non-small cell lung cancer [1 copy KRAS(G12C)](ATCC, #CRL-5807); LU65A human lung carcinoma (Pharmaron, Beijing, China). Cell lines were cultured essentially according to ATCC and Pharmaron recommendations.
Cancer Cell Line Proliferation (CCK-8) Assays
3-fold serial dilutions of each test compound were prepared ranging from 20 μM to 1.02 nM.
% Inhibition=100−(D−B)/(S−B)*100%. • S: Absorbance of cells treated with DMSO • D: Absorbance of compound-treated cells • B: Absorbance of medium with DMSO without cells

The next test concerns the target T1, HSP90a protein (Homo sapiens, UniProt P07900).
T1 construct: purchased BPS Bioscience 50298
Put plainly: HSP90α-binding fluorescent polarization (FP) assay, BODIPY-labeled RNK04010 probe. The settings on record: FP competition with RNK04010 (BODIPY-labeled), 5 nM, 300 min at 25° C. A digest of the protocol: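 Polarization signal was read after equilibration at 25° C, for 120 min with FITC-geldanamycin or 300 min with the BODIPY-tagged RNK04010 probe, each at 5 nM final. Compounds spanned 20 μM down to 5.2 nM in 2.5-fold dilutions against the HSP90a N-terminal domain.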

Molecules are shown by their SMILES.

The compound `CCCc1cc(-c2nnc(O)n2-c2ccc(CNC(=O)CCNc3nc4c(c(N5CCN(C(=O)CC)CC5)n3)CCN(c3cc(O)cc5ccccc35)C4)cc2)c(O)cc1O` [Compound 32, N-(4-(3-(2,4-dihydroxy-5-propylphenyl)-5-hydroxy-4H-1,2,4-triazol-4-yl)benzyl)-3-((7-(3-hydroxynaphthalen-1-yl)-4-(4-propionylpiperazin-1-yl)-5,6,7,8-tetrahydropyrido[3,4-d]pyrimidin-2-yl)amino)propanamide, trifluoroacetic acid] returned an EC50 in test [1] greater than 1000 nM. Besides, on HSP90a protein, the 50% inhibitory concentration (IC50) was greater than 1000 nM.

In the case of `CCC(=O)N1CCN(c2nc(NCCC(=O)NCc3ccc(-n4c(O)nnc4-c4cc(C(C)C)c(O)cc4O)cc3F)nc3c2CCN(c2cc(O)cc4ccccc24)C3)CC1` [Compound 33, N-(4-(3-(2,4-dihydroxy-5-isopropylphenyl)-5-hydroxy-4H-1,2,4-triazol-4-yl)-2-fluorobenzyl)-3-((7-(3-hydroxynaphthalen-1-yl)-4-(4-propionylpiperazin-1-yl)-5,6,7,8-tetrahydropyrido[3,4-d]pyrimidin-2-yl)amino)propanamide, trifluoroacetic acid], in test [1], the EC50 is greater than 1000 nM. Also, at HSP90a protein, the IC50 lay within 100 to 1000 nM.

Compound `CCC(=O)N1CCN(c2nc(NCCC(=O)NCc3ccc(-n4c(O)nnc4-c4cc(CC)c(O)cc4O)cc3F)nc3c2CCN(c2cc(O)cc4ccccc24)C3)CC1` [Compound 34, N-(4-(3-(5-ethyl-2,4-dihydroxyphenyl)-5-hydroxy-4H-1,2,4-triazol-4-yl)-2-fluorobenzyl)-3-((7-(3-hydroxynaphthalen-1-yl)-4-(4-propionylpiperazin-1-yl)-5,6,7,8-tetrahydropyrido[3,4-d]pyrimidin-2-yl)amino)propanamide, trifluoroacetic acid] had an EC50 in test [1] greater than 1000 nM. This compound also came in with a 50% inhibitory concentration (IC50) at HSP90a protein greater than 1000 nM.

In test [1], `CCC(=O)N1CCN(c2nc(NCCC(=O)N3CCN(Cc4ccc(-n5c(O)nnc5-c5cc(C(C)C)c(O)cc5O)cc4)CC3)nc3c2CCN(c2cc(O)cc4ccccc24)C3)CC1` [Compound 35, 1-(4-(4-(3-(2,4-dihydroxy-5-isopropylphenyl)-5-hydroxy-4H-1,2,4-triazol-4-yl)benzyl)piperazin-1-yl)-3-((7-(3-hydroxynaphthalen-1-yl)-4-(4-propionylpiperazin-1-yl)-5,6,7,8-tetrahydropyrido[3,4-d]pyrimidin-2-yl)amino)propan-1-one, trifluoroacetic acid] came in with an EC50 greater than 1000 nM. The compound also came in with an IC50 on HSP90a protein of 100 to 1000 nM.

For the compound `C=CC(=O)N1CCN(c2nc(NCCC(=O)NCc3ccc(-n4c(O)nnc4-c4cc(C(C)C)c(O)cc4O)cc3C(F)(F)F)nc3c2CCN(c2cc(O)cc4ccccc24)C3)CC1` [Compound 36, 3-((4-(4-acryloylpiperazin-1-yl)-7-(3-hydroxynaphthalen-1-yl)-5,6,7,8-tetrahydropyrido[3,4-d]pyrimidin-2-yl)amino)-N-(4-(3-(2,4-dihydroxy-5-isopropylphenyl)-5-hydroxy-4H-1,2,4-triazol-4-yl)-2-(trifluoromethyl)benzyl)propanamide, trifluoroacetic acid], the EC50 in test [1] was greater than 1000 nM. In addition, the IC50 at HSP90a protein fell in the range of 100 to 1000 nM.

Turning to `CCC(=O)N1CCN(c2nc(NCCC(=O)NCc3ccc(-n4c(O)nnc4-c4cc(CC)c(O)cc4O)cc3)nc3c2CCN(c2cc(O)cc4ccccc24)C3)CC1` [Compound 37, N-(4-(3-(5-ethyl-2,4-dihydroxyphenyl)-5-hydroxy-4H-1,2,4-triazol-4-yl)benzyl)-3-((7-(3-hydroxynaphthalen-1-yl)-4-(4-propionylpiperazin-1-yl)-5,6,7,8-tetrahydropyrido[3,4-d]pyrimidin-2-yl)amino)propanamide, trifluoroacetic acid], the EC50 in test [1] is greater than 1000 nM. Also, the IC50 at HSP90a protein fell in the range of 100 to 1000 nM.

For `CCC(=O)N1CCN(c2nc(NCCC(=O)N3CCC(Cc4ccc(-n5c(O)nnc5-c5cc(C(C)C)c(O)cc5O)cc4)CC3)nc3c2CCN(c2cc(O)cc4ccccc24)C3)CC1` [Compound 38, 1-(4-(4-(3-(2,4-dihydroxy-5-isopropylphenyl)-5-hydroxy-4H-1,2,4-triazol-4-yl)benzyl)piperidin-1-yl)-3-((7-(3-hydroxynaphthalen-1-yl)-4-(4-propionylpiperazin-1-yl)-5,6,7,8-tetrahydropyrido[3,4-d]pyrimidin-2-yl)amino)propan-1-one, trifluoroacetic acid], in test [1], the 50% effective concentration (EC50) was greater than 1000 nM. This compound also displayed a 50% inhibitory concentration (IC50) at HSP90a protein of 100 to 1000 nM.

For `C=CC(=O)N1CCN(c2nc(NCCC(=O)NCc3ccc(-n4c(O)nnc4-c4cc(CC)c(O)cc4O)cc3C(F)(F)F)nc3c2CCN(c2cc(O)cc4ccccc24)C3)CC1` [Compound 39, 3-((4-(4-acryloylpiperazin-1-yl)-7-(3-hydroxynaphthalen-1-yl)-5,6,7,8-tetrahydropyrido[3,4-d]pyrimidin-2-yl)amino)-N-(4-(3-(5-ethyl-2,4-dihydroxyphenyl)-5-hydroxy-4H-1,2,4-triazol-4-yl)-2-(trifluoromethyl)benzyl)propanamide, trifluoroacetic acid], in test [1], the 50% effective concentration (EC50) was greater than 1000 nM. The IC50 at HSP90a protein is greater than 1000 nM.

Turning to `C=CC(=O)N1CCN(c2nc(NCCC(=O)NCc3ccc(-n4c(O)nnc4-c4cc(CC)c(O)cc4O)cc3)nc3c2CCN(c2cc(O)cc4ccccc24)C3)CC1` [Compound 40, 3-((4-(4-acryloylpiperazin-1-yl)-7-(3-hydroxynaphthalen-1-yl)-5,6,7,8-tetrahydropyrido[3,4-d]pyrimidin-2-yl)amino)-N-(4-(3-(5-ethyl-2,4-dihydroxyphenyl)-5-hydroxy-4H-1,2,4-triazol-4-yl)benzyl)propanamide, trifluoroacetic acid], in test [1], the EC50 was greater than 1000 nM. The compound further yielded an IC50 on HSP90a protein of 100 to 1000 nM.

In test [1], `C=CC(=O)N1CCN(c2nc(NCCC(=O)NCc3ccc(-n4c(O)nnc4-c4cc(CC)c(O)cc4O)cc3F)nc3c2CCN(c2cc(O)cc4ccccc24)C3)CC1` [Compound 41, 3-((4-(4-acryloylpiperazin-1-yl)-7-(3-hydroxynaphthalen-1-yl)-5,6,7,8-tetrahydropyrido[3,4-d]pyrimidin-2-yl)amino)-N-(4-(3-(5-ethyl-2,4-dihydroxyphenyl)-5-hydroxy-4H-1,2,4-triazol-4-yl)-2-fluorobenzyl)propanamide, trifluoroacetic acid] gave an EC50 greater than 1000 nM. This compound also gave an IC50 on HSP90a protein of 100 to 1000 nM.

In the case of `CC(=O)N1CCN(c2nc(NCCC(=O)NCc3ccc(-n4c(O)nnc4-c4cc(C(C)C)c(O)cc4O)cc3C(F)(F)F)nc3c2CCN(c2cc(O)cc4ccccc24)C3)CC1` [Compound 42, 3-((4-(4-acetylpiperazin-1-yl)-7-(3-hydroxynaphthalen-1-yl)-5,6,7,8-tetrahydropyrido[3,4-d]pyrimidin-2-yl)amino)-N-(4-(3-(2,4-dihydroxy-5-isopropylphenyl)-5-hydroxy-4H-1,2,4-triazol-4-yl)-2-(trifluoromethyl)benzyl)propanamide, trifluoroacetic acid], the EC50 in test [1] was greater than 1000 nM. Besides, the IC50 at HSP90a protein fell in the range of 100 to 1000 nM.

Take `CCc1cc(-c2nnc(O)n2-c2ccc(CNC(=O)CCNc3nc4c(c(N5CCN(C(C)=O)CC5)n3)CCN(c3cc(O)cc5ccccc35)C4)c(F)c2)c(O)cc1O` [Compound 43, 3-((4-(4-acetylpiperazin-1-yl)-7-(3-hydroxynaphthalen-1-yl)-5,6,7,8-tetrahydropyrido[3,4-d]pyrimidin-2-yl)amino)-N-(4-(3-(5-ethyl-2,4-dihydroxyphenyl)-5-hydroxy-4H-1,2,4-triazol-4-yl)-2-fluorobenzyl)propanamide]: the EC50 in test [1] was greater than 1000 nM. This compound had a 50% inhibitory concentration (IC50) on HSP90a protein greater than 1000 nM.

Consider `CC(=O)N1CCN(c2nc(NCCC(=O)NCc3ccc(-n4c(O)nnc4-c4cc(C)c(O)cc4O)cc3)nc3c2CCN(c2cc(O)cc4ccccc24)C3)CC1` [Compound 44, 3-((4-(4-acetylpiperazin-1-yl)-7-(3-hydroxynaphthalen-1-yl)-5,6,7,8-tetrahydropyrido[3,4-d]pyrimidin-2-yl)amino)-N-(4-(3-(2,4-dihydroxy-5-methylphenyl)-5-hydroxy-4H-1,2,4-triazol-4-yl)benzyl)propanamide, trifluoroacetic acid], for which, in test [1], the EC50 was greater than 1000 nM. The IC50 on HSP90a protein is greater than 1000 nM.

For the compound `CCC(=O)N1CCN(c2nc(NCCC(=O)NCc3ccc(-n4c(O)nnc4-c4cc(CC)c(O)cc4O)cc3C(F)(F)F)nc3c2CCN(c2cc(O)cc4ccccc24)C3)CC1` [Compound 45, N-(4-(3-(5-ethyl-2,4-dihydroxyphenyl)-5-hydroxy-4H-1,2,4-triazol-4-yl)-2-(trifluoromethyl)benzyl)-3-((7-(3-hydroxynaphthalen-1-yl)-4-(4-propionylpiperazin-1-yl)-5,6,7,8-tetrahydropyrido[3,4-d]pyrimidin-2-yl)amino)propanamide, trifluoroacetic acid], the EC50 in test [1] was greater than 1000 nM. Also, the IC50 on HSP90a protein was greater than 1000 nM.

`CCC(=O)N1CCN(c2nc(NCCC(=O)NCc3ccc(-n4c(O)nnc4-c4cc(C(C)C)c(O)cc4O)cc3C(F)(F)F)nc3c2CCN(c2cc(O)cc4ccccc24)C3)CC1` [Compound 46, N-(4-(3-(2,4-dihydroxy-5-isopropylphenyl)-5-hydroxy-4H-1,2,4-triazol-4-yl)-2-(trifluoromethyl)benzyl)-3-((7-(3-hydroxynaphthalen-1-yl)-4-(4-propionylpiperazin-1-yl)-5,6,7,8-tetrahydropyrido[3,4-d]pyrimidin-2-yl)amino)propenamide] showed an EC50 in test [1] greater than 1000 nM. Besides, the IC50 on HSP90a protein is 100 to 1000 nM.
